In US11439646B2, “Anti-proliferative agents for treating PAH” (Pfizer Inc., priority 2016, dated 2022):
pIC50: −log10 of the molar value. Where two headings read alike, the source gives them in different places.

Assays:
Format in all cases: cell-based
phospho-Rb (Ser807/811) = experiment: In-cell western analysis of Rb phosphorylation in human PASMCs; details: for pIC50: human PASMCs
Protocol: In-cell western analysis. Primary PASMCs from normal human subjects were cultured and serum-starved as described above. Cells were first pre-incubated with different concentrations of palbociclib for 60 minutes, and then either 5% FBS or 10% FBS or 30 ng/ml PDGF-BB was added to stimulate cell proliferation and Rb phosphorylation. The effect of Palbociclib on Rb phosphorylation was evaluated 24 h later, using in-cell western assay according to the manufacturer's instructions (Li-Cor Biosciences, Lincoln, Nebr., USA). Phosphorylated Rb was measured using a rabbit monoclonal antibody anti-phospho-Rb (Ser807/811) (Cell Signaling Technology, Inc., Danvers, Mass., USA), followed by detection with IRDye 800CW infrared fluorescent dye-labeled goat anti-rabbit secondary antibody. Actin levels were measured using mouse anti-actin monoclonal antibodies (pan Ab-5) (Fisher Scientific Pittsburgh, Pa., USA; Sigma Aldrich, St. Louis, Mo., USA), and followed by detection with IRDye 680RD-labeled goat anti-mouse secondary antibody. See FIG. 2a where 5% FBS was used, FIG. 2b where PDGF-BB was used, and FIG. 2c where 10% FBS was used.

human primary PAAFs = experiment: BrdU cell proliferation assay, human primary PAAFs; details: serum, average of 3, FIG. 1c, read-out: IC50, serum-induced proliferation of human primary PAAFs
Protocol: (§1) Cell proliferation assay. Primary PASMCs and PAAFs from normal human subjects (ScienCell Research Laboratories, San Diego, Calif., USA) and rat primary PASMCs (Cell Applications, San Diego, Calif., USA) were plated in CellBIND® 96-well plates in Dulbecco's modification of Eagle's medium (DMEM) containing 5% fetal bovine serum (FBS), and serum-starved for 24 h in DMEM containing 0.1% FBS. Cells were first pre-incubated with different concentrations of palbociclib (in triplicates) for 30 minutes, and then 30 ng/ml PDGF-BB or 5% FBS was added to stimulate cell proliferation. Cells were maintained for 48 h before the proliferation rate was evaluated using the Cell Proliferation ELISA BrdU (bromodeoxyuridine) Luminescence Kit (Roche Diagnostics, Mannheim, Germany). BrdU was added to the medium 16 h before the quantification of BrdU incorporation. This procedure was use to generate data as presented in at least FIGS. 1a, 1b, 1c, and 1d. IC50 values were calculated for any given inhibitor by determining the concentration of compound needed to inhibit 50% of the response applied to the system. IC50 values were derived from the four parameter logistic equation which was fit to the compound concentration response data.

human primary PASMCs = experiment: BrdU cell proliferation assay, human primary PASMCs; details: PASMC
Protocol: as §1

hPASMC = experiment: EdU cell proliferation assay, hPASMC; details: Homo sapiens, 5% FBS, N = 6, FIG. 1e, read-out: hPASMC IC50 (nM), inhibition of proliferation
Protocol: Alternatively, rather than using BrdU, EdU (5-ethynyl-2′-deoxyuridine) can be used. Cells were first pre-incubated with different concentrations of the CDK inhibitor for 30 minutes, and then 5% FBS was added to stimulate cell proliferation. Cells were maintained for 24 h before the proliferation rate was evaluated using EDU Click-iT EdU Alexa Fluor® 647 HCS Assay (Thermofisher Scientific, USA). EdU was added to the medium 16 h before the quantification of EdU incorporation. Proliferation was quantified by scanning the 96-well plates using automated high content imaging platform equipped with appropriate fluorescence microscopic filters for DAPI (4′,6-Diamidino-2-Phenylindole) or Hoechst stain and Cyanine5 dyes as part of the Click-iT assay. Proliferating EdU positive cells detected at Cyanine5 were quantified and normalized to total cell number per well where the total cell number per cell was identified by DAPI or Hoechst signal. The % effect was then calculated:
The average (avg) amount (amt) of proliferating cells per concentration of CDK inhibitor with FBS present.
The minimum amount of proliferation (min amt of prolif'n) is based on cell numbers in the wells where FBS is not added and no CDK inhibitor is present.
The maximum amount of proliferation (max amt of prolif'n) is based on cell numbers in the wells where FBS is added and no CDK inhibitor is present.

CC(=O)c1c(C)c2cnc(Nc3ccc(N4CCNCC4)cn3)nc2n(C2CCCC2)c1=O [Palbociclib, 6-acetyl-8-cyclopentyl-5-methyl-2-{[5-(piperazin-1-yl)pyridin-2yl]amino}pyrido[2,3-d]pyrimidin-7(8H)-one]
IC50 (phospho-Rb (Ser807/811); Homo sapiens, PASMC, 10% FBS, N = 6, FIG. 2c, read-out: Average IC50 (nM), inhibition of phosphorylation of Rb in hPASMCs): 64.2 nM
pIC50 (phospho-Rb (Ser807/811); PASMC, 5% FBS, FIG. 2a, read-out: IC50, serum-induced Rb phosphorylation): 7.83
pIC50 (phospho-Rb (Ser807/811); PASMC, PDGF-BB, FIG. 2b, read-out: IC50, PDGF-BB induced Rb phosphorylation): 8.28
effect on total Rb levels (phospho-Rb (Ser807/811); human primary PASMCs, 5% FBS or PDGF-BB): little effect
pIC50 (human primary PAAFs): 7.67
pIC50 (human primary PASMCs; 30 ng/ml PDGF-BB, average of 3, FIG. 1a, read-out: IC50, PDGF-BB induced proliferation of human primary PASMCs): 8.13
pIC50 (human primary PASMCs; 5% FBS, average of 3, FIG. 1b, read-out: IC50, proliferation of human primary PASMCs induced by 5% FBS): 8.13
IC50 (hPASMC): 0.3 nM
